Results reported in patent US12157869B2, “Methods and compositions for reducing persistent odor in clothing and mitigating biofilms on various materials” (priority 2019, dated 2024).
Counter-ions that a name gives are not always drawn.

Experiments:
[1] = system: persistent odor (perma-odor) in clothing; assay: Odor evaluation of treated clothing by smelling (odor level on a scale of 0 to 5)
[2] = system: biofilm matter in clothing; assay: UV light visualization of fluorescence of suspected biofilm matter in clothing (optical brightener / Calcofluor White)
Method: Three UV lamps were used in testing fluorescence in potential biofilms. These included a Lightfe® UV301D lamp providing a beam at 365 nm, a UVBeast V3 lamp operating at 395 nm, and a UV Nova 108-LED UV lamp operating at 395 nm.
In one approach, biofilm candidates were stained using Calcofluor White M2R dye, a fluorescent brightener purchased from Phyto Technology Laboratories (Shawnee Mission, Kansas), CAS No. 4404-43-7. A solution was prepared of 0.074% Calcofluor white in water, and given the name CF1.
In examining fluorescence, it was eventually noted that both an SLR camera and an iPhone camera could not easily capture the fine details of fluorescence when using any of the UV lamps available for this study, probably because the fluorescence, including some background fluorescence, may have interfered with the camera's visible light operations. […] A rubber band was sufficient for holding it in place.

[3] = system: darkened regions believed to be biofilm remnants in clothing; assay: Visible-light inspection of darkened or yellow regions in clothing; settings: shirt CH1; left pit 6 g 2.1% NAC then 1.95 g E3; right pit 2.1 g E3 without NAC; about 20 min, short cycle 30°C Purex
Text: FIG. 10A depicts the left pit of shirt CH1 in visible light after the treatments described previously (as well as the treatment with optical brighter). A dark region 202 is still present that appears to come from within the fabric rather than resting on its surface. It is believed to come from biofilm material such as polysaccharides, proteins, and genetic material, that is capable of adhering to optical brighteners such as CF1 solution. FIG. 10B depicts the same region in UV light using the UVBeast V3 lamp. The dark region 202 of FIG. 10A is now a fluorescent region 204 with the appearance of a purple color, believed to result from Calcofluor White fluorescence couple with the dark matter's blocking of the fluorescence of the shirt material itself. […] The fluorescence in CH1 was bright enough to be detected even with the orange dye of the shirt brightly fluorescing at the same time.

CC(=O)N[C@@H](CS)C(=O)O [NAC, N-acetyl cysteine]
odor after one work day, shirt AA left pit ([1]; 2.1% NAC and NIC, wash): remained smelling fresh
odor after one work day, shirt AA right pit ([1]; 2.1% NAC, NIC and 2 g E2, wash): smell again
owner's report after wash and exercise, shirt WL ([1]; left pit 4.8 g 2% NAC (pH 7.8), 2 min, 6.5 g NIC, 10 min, 5 g NIC, liquid Tide): substantial improvement
odor after heavy exercise, shirt RL ([1]; right pit 2% NAC pH 7.8 then NIC, left pit NIC only, washed): strong odor
odor level after washing and exercise, shirt BL right pit ([1]; right pit 2.1% NAC, EGCD-2, left pit about 2, scale of 0 to 5): ~1
odor after washing and exercise, shirt WL ([1]; right pit 2.1% NAC, EGCD-B, NIC): very little odor
odor level after washing and exercise, shirt RL ([1]; right pit 2.1% NAC, EGCD-B, NIC, both pits about the same, scale of 0 to 5): about 2
odor following exercise, shirt AB ([1]; right pit 8.2 g 2.1% NAC, 3.3 g NIC, 5.4 g LPS1, wash): smell better in general
residual odor after wash, shirt RL ([1]; right pit 9.1 g 2% NAC pH 7.8, 11 min, 5.8 g NIC, left pit 10 g NIC only): appeared to have been eliminated
odor level after washing and drying ([1]; shirt BD1 right pit, 5.2 g 2.1% NAC (pH 4) then 2.9 g E3C, Purex, about 3 before, untreated left pit about 1, scale of 1 to 5): 0
odor after handwash and air drying ([1]; shirt CH1, right pit 3.2% NAC solution (2 g outside and inside), 2 min, then NIC 4.83 g, left pit NIC only 7.4 g, 5 min): smelled better than the left
odor intensity after exercise and 48 hours storage at room temperature ([1]; shirt CH1, right pit second treatment: 8 ml NAC solution (600 mg effervescent tablet in 100 ml) then 5.3 ml EGCD-A, 20 min, left pit earlier NIC only, 0 to 5 scale): 2 to 3
odor rating after further exercise, left pit ([1]; shirt CH1 left pit, 10 g 2% NAC solution 10 min, 9 g NIC 15 min, rinse, wash (Bright Blue Moon), scale 0 to 5): 2 to 3
odor after exercise relative to left pit ([1]; shirt CH1 right pit, 2% NAC solution, washed, odor level about 5 before): significantly reduced
odor level after washing ([1]; shirt CH1 right pit, 2.4 g pH 3.0 NAC solution, 5 min, short cycle with Bright Blue Moon, scale of 0 to 5): about 0.5
odor after handwash and drying ([1]; shirt CH1 right pit, 21 g 2% NAC solution, 5.94 g EGCD-A, 10 min, 7 g NIC, about 10 min): no odor
odor rating after further exercise, right pit ([1]; shirt CH1 right pit, earlier NAC, EGCD-A and NIC treatments, scale 0 to 5): about 1
odor after washing and air drying ([1]; shirt Dec1 right pit, 1.6 g of 1.8% NAC solution (pH about 2), then standard wash with Bright Blue Moon enzymatic detergent): some odor
odor of treated pits after wash ([1]; shirts AA, AB, AC, 2.1% NAC solution, about 10 min, then NIC (some pits also E2 or LPS1), 15 min, wash with Bright Blue Moon, versus untreated pits or pits without NAC): smelled better than before
odor after washing ([1]; shirts RL, BL, WL right pits, 2.1% NAC solution 12-13.5 g, then EGCD-B or EGCD-2, then NIC (RL, WL), owner's report): significantly reduced odor
fluorescent zones after wash ([2]; shirt BD1, right pit 2.1% NAC (pH 4) then E3C): slightly decreased in intensity
intensity of fluorescent zones after wash ([2]; shirt BD1, right pit 5.2 g 2.1% NAC pH 6.4 then 3.0 g E3D, left pit water then 3.28 g E3D, about 33°C 2 hours, full cycle 40°C Tide): may have decreased slightly
fluorescence after CF1 staining, left pit ([2]; shirt CH1, 2.1% NAC then E3, wash, Lightfe UV301D 365 nm): perhaps weaker than initially seen
fluorescence after wash ([2]; shirt RA1, left pit 4.54 g 2.1% NAC then 10.7 g E3D, right pit 9.2 g E3D only, about 33°C 2 hours, short cycle 30°C Purex): significant reduction in fluorescence
residual fluorescence, lower versus upper half of left pit ([2]; shirt RA1, lower half 2.15% NAC (pH 6.4 and 9.17), upper half water, both CellulaseC 5.6 g and AmylaseA 1.94 g, about 28°C 30 min): declined more strongly
darkened regions after wash [3]: perhaps slightly lighter

O=C(O)CC(O)(CC(=O)O)C(=O)O [sodium citrate]
fluorescence of previously treated pits ([2]; shirt RA1, 12% sodium citrate solution 7 g then 1.72 g E3D, about 30°C 3 hours, Lemon Brite): only very slight improvement at best
reddish fluorescent zone ([2]; shirt RA1, 12% sodium citrate solution then E3D): significant reduction
fluorescence of previously untreated spot ([2]; shirt RA1, 12% sodium citrate solution then E3D, about 30°C 3 hours, also slightly smaller in extent): significantly reduced in brightness
fluorescence of two zones of right pit ([2]; shirt RA1, each about 2.3 g 12% citrate solution, lower zone also 1.86 g E3D, 40-45°C two hours): only little reduction in fluorescence
